Results as given in patent publication US9926264B2, “Phenylcarbamate derivatives as formyl peptide receptor modulators” (Allergan, Inc., priority 2013, dated 2018).

Target: T1, FPR2 (Homo sapiens, UniProt P25090)
T1 construct: expressed in transfected cells; host or cells: CHO-Gα16 cells
T1 sequence (P25090 1-351): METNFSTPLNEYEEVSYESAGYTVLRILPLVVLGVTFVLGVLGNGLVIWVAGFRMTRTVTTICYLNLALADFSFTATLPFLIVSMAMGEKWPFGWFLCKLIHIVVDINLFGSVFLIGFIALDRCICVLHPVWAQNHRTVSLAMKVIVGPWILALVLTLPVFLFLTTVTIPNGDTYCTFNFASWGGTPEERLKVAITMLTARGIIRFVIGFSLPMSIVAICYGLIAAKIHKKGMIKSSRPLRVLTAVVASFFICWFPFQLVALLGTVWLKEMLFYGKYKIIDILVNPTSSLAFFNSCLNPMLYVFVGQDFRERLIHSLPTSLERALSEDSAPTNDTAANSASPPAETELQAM
Experiment: compound-induced calcium activity on FLIPR Tetra in CHO-Gα16 cells stably expressing FPR2
Type: cell-based
Conditions: for Emax: efficacy value in brackets after EC50, read-out: FPR2 Gα16-CHO (% eff); for EC50: tested 0.61 to 10,000 nM
Method: CHO-Gα16 cells stably expressing FPR2 were cultured in (F12, 10% FBS, 1% PSA, 400 μg/ml geneticin and 50 μg/ml hygromycin) and HEK-Gqi5 cells stable expressing FPR1 were cultured in (DMEM high glucose, 10% FBS, 1% PSA, 400 μg/ml geneticin and 50 μg/ml hygromycin). In general, the day before the experiment, 18,000 cells/well were plated in a 384-well clear bottom poly-D-lysine coated plate. The following day the screening compound-induced calcium activity was assayed on the FLIPR^Tetra. The drug plates were prepared in 384-well microplates using the EP3 and the MultiPROBE robotic liquid handling systems. Compounds were tested at concentrations ranging from 0.61 to 10,000 nM. Results are expressed as EC50 (nM) and % efficacy values.

`CC(C)C[C@H](OC(=O)Nc1ccc(Br)cc1)C(=O)NCC(=O)OC(C)(C)C` [Compound 1, tert-Butyl {[(2S)-2-{[(4-Bromophenyl)carbamoyl]oxy}-4-methylpentanoyl]amino}acetate] was tested, and the Emax was 89% and the EC50 was 526 nM.

For `CC(C)C[C@H](OC(=O)Nc1ccc(C(F)(F)F)cc1)C(=O)NCC(=O)OC(C)(C)C` [Compound 2, tert-Butyl {[(2S)-4-Methyl-2-({[4-(trifluoromethyl)phenyl]carbamoyl}oxy)pentanoyl]amino}acetate], the Emax was 112% and the EC50 was 2020 nM.

`CC(C)C[C@H](OC(=O)Nc1ccc(Br)cc1)C(=O)N(C)CC(=O)OC(C)(C)C` [Compound 3, tert-Butyl {[(2S)-2-{[(4-Bromophenyl)carbamoyl]oxy}-4-methylpentanoyl](methyl)amino}acetate] gave an Emax of 101% and an EC50 of 109 nM.

`CC(C)C[C@H](OC(=O)Nc1ccc(Br)cc1)C(=O)N(C)CCO` [Compound 4, (2S)-1-[(2-Hydroxyethyl)(methyl)amino]-4-methyl-1-oxopentan-2-yl (4-bromophenyl)carbamate] was tested, and the Emax was 97% and the EC50 was 59 nM.

In the case of `CCOP(=O)(CNC(=O)[C@H](CC(C)C)OC(=O)Nc1ccc(C(F)(F)F)cc1)OCC` [Compound 5, Diethyl ({[(2S)-4-methyl-2-({[4-(Trifluoromethyl)phenyl]carbamoyl}oxy)pentanoyl]amino}methyl)phosphonate], the Emax is reported as 101% and the EC50 is reported as 6.7 nM.

`CC(C)C[C@H](OC(=O)Nc1ccc(C(F)(F)F)cc1)C(=O)NCCO` [Compound 6, (2S)-1-[(2-Hydroxyethyl)amino]-4-Methyl-1-oxopentan-2-yl [4-(trifluoromethyl)phenyl]carbamate] was tested, and the Emax was 75% and the EC50 was 146 nM.

`CC(C)C[C@H](OC(=O)Nc1ccc(Br)cc1)C(=O)NCCO` [Compound 7, (2S)-1-[(2-Hydroxyethyl)amino]-4-methyl-1-oxopentan-2-yl (4-bromophenyl)carbamate] was tested, and the Emax was 98% and the EC50 was 35 nM.

`CCOP(=O)(CNC(=O)[C@H](CC(C)C)OC(=O)Nc1ccc(Br)cc1)OCC` [Compound 8, Diethyl ({[(2S)-2-{[(4-bromophenyl)carbamoyl]oxy}-4-methylpentanoyl]amino}methyl)phosphonate] showed an Emax of 100% and an EC50 of 1.8 nM.

With `CCCN(CC(=O)OC(C)(C)C)C(=O)[C@H](CC(C)C)OC(=O)Nc1ccc(Br)cc1` [Compound 9, tert-Butyl {[(2S)-2-{[(4-Bromophenyl)carbamoyl]oxy}-4-methylpentanoyl](propyl)amino}acetate] the Emax was 104% and the EC50 was 4.4 nM.

For `CC(C)C[C@H](OC(=O)Nc1ccc(Br)cc1)C(=O)N(CC(=O)OC(C)(C)C)C(C)C` [Compound 10, tert-Butyl {[(2S)-2-{[(4-Bromophenyl)carbamoyl]oxy}-4-methylpentanoyl](propan-2-yl)amino}acetate], the Emax was 103% and the EC50 was 11 nM.

`CCN(CC(=O)OC(C)(C)C)C(=O)[C@H](CC(C)C)OC(=O)Nc1ccc(Br)cc1` [Compound 11, tert-Butyl {[(2S)-2-{[(4-Bromophenyl)carbamoyl]oxy}-4-methylpentanoyl](ethyl)amino}acetate] gave an Emax of 97% and an EC50 of 8 nM.

`CC(C)C[C@H](OC(=O)Nc1ccc(C(F)(F)F)cc1)C(=O)N(C)CC(=O)OC(C)(C)C` [Compound 12, tert-Butyl {Methyl[(2S)-4-methyl-2-({[4-(trifluoromethyl)phenyl]carbamoyl}oxy)pentanoyl]amino}acetate] was tested, and the Emax was 100% and the EC50 was 24.8 nM.

Compound `CCN(CC(=O)OC(C)(C)C)C(=O)[C@H](CC(C)C)OC(=O)Nc1ccc(C(F)(F)F)cc1` [Compound 13, tert-Butyl {Ethyl[(2S)-4-methyl-2-({[4-(trifluoromethyl)phenyl]carbamoyl}oxy)pentanoyl]amino}acetate] has an Emax of 99% and an EC50 of 16.6 nM.

`CC(C)C[C@H](OC(=O)Nc1ccc(Br)cc1)C(=O)NCc1nnn[nH]1` [Compound 14, (2S)-4-Methyl-1-oxo-1-[(1H-tetrazol-5-ylmethyl)amino]pentan-2-yl (4-bromophenyl)carbamate] was tested, and the Emax was 101% and the EC50 was 1.3 nM.

For `CC(C)C[C@H](OC(=O)Nc1ccc(C(F)(F)F)cc1)C(=O)NCc1nnn[nH]1` [Compound 15, (2S)-4-methyl-1-oxo-1-[(1H-tetrazol-5-ylmethyl)amino]pentan-2-yl [4-(trifluoromethyl)phenyl]carbamate], the Emax was 96% and the EC50 was 3.6 nM.

`CC(C)C[C@H](OC(=O)Nc1ccc(Br)cc1)C(=O)N(C)Cc1nnn[nH]1` [Compound 16, (2S)-4-methyl-1-[methyl(1H-tetrazol-5-ylmethyl)amino]-1-oxopentan-2-yl (4-bromophenyl)carbamate] gave an Emax of 98% and an EC50 of 0.81 nM.

For `CC(C)C[C@H](OC(=O)Nc1ccc(C(F)(F)F)cc1)C(=O)N(C)Cc1nnn[nH]1` [Compound 17, (2S)-4-methyl-1-[methyl(1H-tetrazol-5-ylmethyl)amino]-1-oxopentan-2-yl [4-(trifluoromethyl)phenyl]carbamate], the Emax was 91% and the EC50 was 2.4 nM.

`CC(=O)OCCNC(=O)[C@H](CC(C)C)OC(=O)Nc1ccc(C(F)(F)F)cc1` [Compound 18, 2-{[(2S)-4-Methyl-2-({[4-(trifluoromethyl)phenyl]carbamoyl}oxy)pentanoyl]amino}ethyl acetate] gave an Emax of 89% and an EC50 of 195 nM.

With `CC(C)C[C@H](OC(=O)Nc1ccc(Br)cc1)C(=O)NCC(=O)O` [Compound 19, {[(2S)-2-{[(4-Bromophenyl)carbamoyl]oxy}-4-methylpentanoyl]amino}acetic acid] the Emax was 101% and the EC50 was 0.84 nM.

With `CC(C)C[C@H](OC(=O)Nc1ccc(C(F)(F)F)cc1)C(=O)NCC(=O)O` [Compound 20, {[(2S)-4-Methyl-2-({[4-(trifluoromethyl)phenyl]carbamoyl}oxy)pentanoyl]amino}acetic acid] the Emax was 99% and the EC50 was 3.9 nM.

`CC(C)C[C@H](OC(=O)Nc1ccc(Br)cc1)C(=O)N(C)CC(=O)O` [Compound 21, {[(2S)-2-{[(4-Bromophenyl)carbamoyl]oxy}-4-methylpentanoyl](methyl)amino}acetic acid] gave an Emax of 106% and an EC50 of 0.25 nM.

For `CCCN(CC(=O)O)C(=O)[C@H](CC(C)C)OC(=O)Nc1ccc(Br)cc1` [Compound 22, {[(2S)-2-{[(4-Bromophenyl)carbamoyl]oxy}-4-methylpentanoyl](propyl)amino}acetic acid], the Emax was 91% and the EC50 was 0.44 nM.

`CC(C)C[C@H](OC(=O)Nc1ccc(Br)cc1)C(=O)N(CC(=O)O)C(C)C` [Compound 23, {[(2S)-2-{[(4-Bromophenyl)carbamoyl]oxy}-4-methylpentanoyl](propan-2-yl)amino}acetic acid] showed an Emax of 105% and an EC50 of 0.32 nM.

With `CCN(CC(=O)O)C(=O)[C@H](CC(C)C)OC(=O)Nc1ccc(Br)cc1` [Compound 24, {[(2S)-2-{[(4-Bromophenyl)carbamoyl]oxy}-4-methylpentanoyl](ethyl)amino}acetic acid] the Emax was 95% and the EC50 was 0.24 nM.

Compound `CC(C)C[C@H](OC(=O)Nc1ccc(C(F)(F)F)cc1)C(=O)N(C)CC(=O)O` [Compound 25, {Methyl[(2S)-4-methyl-2-({[4-(trifluoromethyl)phenyl]carbamoyl}oxy)pentanoyl]amino}acetic acid] has an Emax of 97% and an EC50 of 0.94 nM.
